These results are taken from patent publication US8097758B2, “Isoserine derivatives for use as coagulation factor IXa inhibitors” (Sanofi-Aventis, priority 2006, dated 2012).

T1 sequence (P00740 227-461 limits assumed): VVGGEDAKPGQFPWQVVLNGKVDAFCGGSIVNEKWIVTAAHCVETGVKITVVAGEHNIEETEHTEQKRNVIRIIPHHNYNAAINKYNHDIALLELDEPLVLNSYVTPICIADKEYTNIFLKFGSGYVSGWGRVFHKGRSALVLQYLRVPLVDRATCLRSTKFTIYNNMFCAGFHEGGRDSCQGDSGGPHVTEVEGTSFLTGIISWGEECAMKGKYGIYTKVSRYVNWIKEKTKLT
T1 sequence (P00740 47-191 partner limits assumed): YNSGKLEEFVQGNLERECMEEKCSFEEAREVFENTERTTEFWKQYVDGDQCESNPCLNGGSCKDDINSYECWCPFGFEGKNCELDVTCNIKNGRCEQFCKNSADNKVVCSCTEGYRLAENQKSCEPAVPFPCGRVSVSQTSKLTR

The assay has as its target T1, factor IXa (Homo sapiens, UniProt P00740).
T1 construct: purchased Calbiochem (Merck KGaA) 233290
As to the kind of experiment: Factor IXa enzyme assay (chromogenic substrate PEFA 3107). The format is biochemical. The settings on record: factor IXa 277 nM final, pH 7.4, 15 min preincubation at room temperature, read at 405 nm, duplicate determination. The procedure: The prepared substances from the examples were tested for inhibition of the enzymatic activity of FIXa using the substrate PEFA 3107 (Pentapharm/Loxo; via S. Black GmbH, Baumstrasse 41, 47198 Duisburg, Germany; Pr. No. 095-20) and factor IXa (Calbiochem, Merck KGaA markets Calbiochem in Germany, Life Science & Analytics, 64293 Darmstadt; Pr. No. 233290). In this method, 28 μl of test buffer (50 mM α,α,α-tris(hydroxymethyl)methylamine (TRIS), 100 mM NaCl, 5 mM CaCl2, 0.1% bovine serum albumin, pH 7.4) and 10 μl of factor IXa (277 nM final concentration in the test batch) were added to 2 μl of 10 mM dimethyl sulfoxide solution of the respective test substance, and the mixture was incubated for 15 minutes at room temperature in a 96 half-well microtiter plate. The enzyme reaction was started by addition of 10 μl of substrate (1 mM stock solution in water). The time course of the reaction was monitored at 405 nm in a microtiter plate reader (SpectraMax plus 384; Molecular Devices) for 15 minutes.
The IC50 was calculated from the averaged values (duplicate determination) of a dilution series of the test substance with the aid of the software Grafit 4 (Erithacus Software, UK). The inhibition constants (Ki) were calculated according to the Cheng Prusoff equation Ki=IC50/(1+(S/Km), where S=concentration of the test substrate in the test and Km=Michaelis-Menten constant.
Consider `Nc1nc2ccc(NC(=O)C(O)C(NC(=O)c3ccc(N4CCOCC4)cc3)c3ccccc3)cc2[nH]1` (stereo not drawn) [Example 53, N-[2-(2-Amino-3H-benzimidazol-5-ylcarbamoyl)-2-hydroxy-1-phenylethyl]-4-morpholin-4-yl-benzamide], for which the IC50 stood at 1340 nM.

Molecule `COc1cc(OC)cc(C(NC(=O)c2ccc(C(C)C)cc2)C(O)C(=O)Nc2ccc3nc(N)[nH]c3c2)c1` (stereo not drawn) [Example 134, N-[2-(2-Amino-3H-benzimidazol-5-ylcarbamoyl)-1-(3,5-dimethoxyphenyl)-2-hydroxyethyl]-4-iso-propylbenzamide] showed an IC50 of 170 nM.

Turning to `CCc1ccc(C(=O)NC(c2ccccc2)C(O)C(=O)Nc2ccc3nc(N)[nH]c3c2)s1` (stereo not drawn) [Example 68, 5-Ethylthiophene-2-carboxylic acid [2-(2-amino-3H-benzimidazol-5-ylcarbamoyl)-2-hydroxy-1-phenylethyl]amide], the IC50 amounted to 730 nM.

As to `CC(C)c1ccc(C(=O)NC(c2ccccc2)C(O)C(=O)Nc2ccc3nc(N)[nH]c3c2)cc1` (stereo not drawn) [Example 17, N-[2-(2-Amino-3H-benzimidazol-5-ylcarbamoyl)-2-hydroxy-1-phenylethyl]-4-isopropylbenzamide], the IC50 is 280 nM.

As to `CCc1ccc(C(=O)NC(c2ccccc2)C(O)C(=O)Nc2ccc3c(N)nccc3c2)cc1` (stereo not drawn) [Example 87, N-[2-(1-Aminoisoquinolin-6-ylcarbamoyl)-2-hydroxy-1-phenylethyl]-4-ethylbenzamide], the IC50 is 140 nM.

`Nc1nc2ccc(NC(=O)C(O)C(NC(=O)c3ccc(-c4cccs4)s3)c3ccccc3)cc2[nH]1` (stereo not drawn) [Example 81, [2,2′]Bithiophenyl-5-carboxylic acid [2-(2-amino-3H-benzimidazol-5-ylcarbamoyl)-2-hydroxy-1-phenylethyl]amide] came in with an IC50 of 570 nM.

Broadly, the IC50 is the midpoint of a concentration-inhibition curve.
